Data published in patent US5780441A, “Sphingoglycolipid compounds and therapeutic uses thereof” (Kirin Beer Kabushiki Kaisha, priority 1993, dated 1998).

Columns and labels:
[1] = test system: mixed lymphocyte culture reaction (spleen cells of C57BL/6 and BALB/C mice); assay: Mixed lymphocyte culture reaction (MLR); type: cell-based, mouse (C57BL/6 stimulator, BALB/C responder); conditions: 42 hours, 2520 min
Summary of the method: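 Mouse one-way MLR: mitomycin C-treated (50 μg/ml, 30 min) C57BL/6 spleen cells stimulated BALB/C responder spleen cells, 2×10^6 cells/ml each, cultured 42 h at 37 °C with sample. ³H-thymidine (0.5 μCi/well) incorporation over a further 8 h gave MLR activating rate as % of vehicle uptake.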

[2] = test system: mouse splenic lymphocyte; assay: In vitro mouse splenic lymphocyte-proliferation-stimulating effect (3H-TdR uptake); type: cell-based, mouse (BDF1 female); conditions: 2 days, 2880 min
Summary of the method: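 Spleen cells from 6-week-old female BDF1 mice, 2×10^6 cells/ml in 10% FCS RPMI 1640, cultured with vehicle or sample 2 days at 37° C, 5% CO2. ^3H-TdR (0.5 μCi/well) uptake over 6 h by scintillation counting, expressed as % of vehicle.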

[3] = test system: B16 mouse melanoma cells; assay: Tumor growth inhibition in mice subcutaneously inoculated with B16 mouse melanoma cells; type: in vivo, mouse (BDF1 female); conditions: 0.1 mg/kg i.v. days 1, 5, 9; maximum during 20 days
Summary of the method: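 Female BDF1 mice (6 weeks, n=6/group) bearing subcutaneous B16 melanoma. Tumor volume [(length×width×height)/2] measured on days 8, 12, 16 and 20 after implantation; growth inhibition rate computed from treated vs control tumor volumes.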

[4] = test system: lethally irradiated mice; assay: Radioprotective effect: life-span prolongation of lethally irradiated mice; type: in vivo, mouse (BDF1 female); conditions: 0.1 mg/kg i.v. days 0, 4, 8, 9 Gy X-ray, groups of 10, 0.1 mg/kg
Summary of the method: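 Female BDF1 mice (6 weeks, groups of 10) given 9 Gy X-ray on day 0, then compound 0.1 mg/kg intravenously by tail vein on days 0, 4 and 8. Survival followed for 40 days.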

[5] = Solubility in water in aqueous Polysorbate 20 solutions; type: physicochemical; conditions: vs Compound b
Procedure: Compounds a and b comprising a monosaccharide as a constituent sugar which are disclosed in WO 93/05055 were synthesized as above. A 1 mg of each of the present compounds 4, 31 and 33 and Compound a and b was dissolved in 1 ml of an aqueous Polysorbate 20 solution in a variety of concentrations in order to observe visually the property.

[6] = test system: P388 mouse leukemia cells; assay: Life-span-prolonging (anti-tumor) effect on mice subcutaneously inoculated with P388 mouse leukemia cells; type: in vivo, mouse (CDF1 female); conditions: 0.1 mg/kg i.v. on days 1, 5 and 9
Summary of the method: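 CDF1 female mice (6 weeks), 5 per group, inoculated subcutaneously with P388 leukemia cells; life-span prolongation assessed. Lentinan and picibanil given intravenously on days 1, 3, 5, 7 and 9 after implantation; sizofilan given subcutaneously on days 1 through 9. Statistics by Mann-Whitney test.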

[7] = test system: mouse bone marrow cells; assay: In vitro mouse bone marrow cell-proliferation-promoting effect (3H-TdR uptake); type: cell-based, mouse (BDF1 female); conditions: 4 days, 5760 min
Summary of the method: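 Femoral bone marrow monocytes from 6-week female BDF1 mice (Lympholite M fraction, 1×10^6 cells/ml in 10% FCS RPMI 1640) cultured with sample for 4 days at 37 °C, 5% CO2. 3H-TdR (0.5 μCi/well) added for final 6 h; uptake ratio versus vehicle reported as activation rate.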

**Q.** What does the source list for `CCCCCCCCCCCCCCCCCCCCCC[C@@H](O)C(=O)N[C@@H](CO[C@H]1O[C@H](CO)[C@H](O)[C@H](O[C@H]2O[C@H](CO)[C@H](O)[C@H](O)[C@H]2NC(C)=O)[C@H]1O[C@H]1O[C@H](CO)[C@@H](O)[C@H](O)[C@H]1O)[C@H](O)[C@H](O)CCCCCCCCCCCCCC` [Compound 4, O-(N-acetyl-2-amino-2-deoxy-α-D-galactopyranosyl)-(1→3)-O-[α-D-glucopyranosyl-(1→2)]-O-α-D-galactopyranosyl-(1→1)-(2S,3S,4R)-2-amino-N-[(R)-2-hydroxytetracosanoyl]-1,3,4-octadecanetriol]?
**A.** MLR activating rate (%) ([1]; 1 × 10^0 μg/ml): 209%; MLR activating rate (%) ([1]; 1 × 10^-1 μg/ml): 163%; Uptake of 3H-TdR (% of control), splenic lymphocytes ([2]; 10^0 μg/ml): 792 % of control; Uptake of 3H-TdR (% of control), splenic lymphocytes ([2]; 10^-1 μg/ml): 692 % of control; Uptake of 3H-TdR (% of control), splenic lymphocytes ([2]; 10^-2 μg/ml): 395 % of control; Uptake of 3H-TdR (% of control), splenic lymphocytes ([2]; 10^-3 μg/ml): 325 % of control; Maximum tumor growth inhibiting rate, TGIR (%) [3]: 84.0%; Number of surviving mice ([4]; day 10): 10 mice; Number of surviving mice ([4]; day 15): 8 mice; Number of surviving mice ([4]; day 20): 8 mice; Number of surviving mice ([4]; day 25): 6 mice; Number of surviving mice ([4]; day 30): 5 mice; Number of surviving mice ([4]; day 35): 5 mice; Number of surviving mice ([4]; day 40): 5 mice; amount of Polysorbate 20 required for dissolving, relative to that required for Compound b [5]: 1/100; Survival days ave. ± s. d. ([6]; all marked ** (p < 0.01)): 15.2 ± 0.5 days; T/C (%) ([6]; survival vs vehicle): 119%; Uptake of 3H-TdR (% of control), bone marrow cells ([7]; 10^-1 μg/ml): 512 % of control; Uptake of 3H-TdR (% of control), bone marrow cells ([7]; 10^-2 μg/ml): 163 % of control
